From patent publication US9126933B2, “Soft PDE4 inhibitors” (Amakem NV, priority 2011, dated 2015)

Test: in vitro
Conditions: PAMPA, pH 7.4
Protocol: The capacity of compounds of the invention to cross a lipophilic membrane was evaluated in a Pampa assay, using an assay plate containing structured layers of phospholipids supported on a PVDF filter (Benton Dickinson). […] Each compound was tested in triplicate and was prepared as a 10 μM solution in 10 mM PBS pH=7.4 buffer containing 2% DMSO. Compounds were dosed in the donor chamber of the assay plate and incubated for 5 hours, at room temperature. Additionally, an equilibrium solution plate containing 6 μM of test compound was prepared. Test compound concentration in donor and acceptor chamber and in the equilibrium plate was quantified using HPLC-MS/MS. The subsequently calculated permeability coefficients were reported as Papp.

Papp at 5 h, 10 μM: 9.5 ×10⁻⁶ cm/s
SMILES: CC(C)NCC(O)COc1cccc2ccccc12 (stereo not shown) [Propranolol]
